Source: PMC5218480 (PLoS ONE, 2017)

Tested on: MV-4-11 cells
Assay: Gene expression microarray analysis (Affymetrix PrimeView) and GSEA
Format: cell-based, human
Design: RFU PODN (11730768_x_at) / Fold change /veh PODN (11730768_x_at) / RFU LINC00158 (11744669_a_at) / Fold change /veh LINC00158 (11744669_a_at) / RFU DUSP10 (11751237_a_at) / Fold change /veh DUSP10 (11751237_a_at) / RFU ID3 (11757404_x_at) / Fold change /veh ID3 (11757404_x_at) / RFU PLEKHG5 (11737974_s_at) / Fold change /veh PLEKHG5 (11737974_s_at) / RFU LRRC4B (11730491_at) / Fold change /veh LRRC4B (11730491_at) / RFU GIMAP4 (11747438_a_at) / Fold change /veh GIMAP4 (11747438_a_at) / RFU KRT8 (11758183_x_at) / Fold change /veh KRT8 (11758183_x_at) / RFU CNN1 (11734310_a_at) / Fold change /veh CNN1 (11734310_a_at) / RFU VPS37D (11726825_at) / Fold change /veh VPS37D (11726825_at) / RFU C10orf10 (11716522_x_at) / Fold change /veh C10orf10 (11716522_x_at) / RFU KIR2DL2 /// KIR2DL4 /// KIR2DL5A /// KIR2DL5B /// KIR2DS1 /// KIR2DS2 /// KIR2DS3 /// KIR2DS4 /// KIR3DL3 /// KIR3DL3 /// KIR3DS1 (11738374_at) / Fold change /veh KIR2DL2 /// KIR2DL4 /// KIR2DL5A /// KIR2DL5B /// KIR2DS1 /// KIR2DS2 /// KIR2DS3 /// KIR2DS4 /// KIR3DL3 /// KIR3DL3 /// KIR3DS1 (11738374_at) / RFU C1QL1 (11718748_at) / Fold change /veh C1QL1 (11718748_at) / RFU TMPRSS4 (11747572_a_at) / Fold change /veh TMPRSS4 (11747572_a_at) / RFU HAMP (11756126_x_at) / Fold change /veh HAMP (11756126_x_at) / RFU RNFT2 (11725882_a_at) / Fold change /veh RNFT2 (11725882_a_at) / RFU NR4A2 (11747474_a_at) / Fold change /veh NR4A2 (11747474_a_at) / RFU ABCC12 (11746883_a_at) / Fold change /veh ABCC12 (11746883_a_at) / RFU TMEM136 (11760407_x_at) / Fold change /veh TMEM136 (11760407_x_at) / RFU CLDN22 /// WWC2 (11732394_at) / Fold change /veh CLDN22 /// WWC2 (11732394_at) / RFU HLA-DPB1 (11760878_x_at) / Fold change /veh HLA-DPB1 (11760878_x_at) / RFU SPINT1 (11716480_a_at) / Fold change /veh SPINT1 (11716480_a_at) / RFU GAP43 (11754022_s_at) / Fold change /veh GAP43 (11754022_s_at) / RFU A4GNT (11735810_at) / Fold change /veh A4GNT (11735810_at) / RFU PRB3 (11715151_x_at) / Fold change /veh PRB3 (11715151_x_at) / RFU TUBB4B (11761932_at) / Fold change /veh TUBB4B (11761932_at) / RFU CAPN14 (11732068_a_at) / Fold change /veh CAPN14 (11732068_a_at) / RFU TMCC2 (11721928_a_at) / Fold change /veh TMCC2 (11721928_a_at) / RFU IRGQ (11745062_a_at) / Fold change /veh IRGQ (11745062_a_at) / RFU FAM174B (11720279_a_at) / Fold change /veh FAM174B (11720279_a_at) / RFU TMPRSS4 (11748680_a_at) / Fold change /veh TMPRSS4 (11748680_a_at) / RFU FAM212B (11763350_a_at) / Fold change /veh FAM212B (11763350_a_at) / RFU PLEKHG5 (11743358_a_at) / Fold change /veh PLEKHG5 (11743358_a_at) / RFU ZSCAN30 (11745921_a_at) / Fold change /veh ZSCAN30 (11745921_a_at) / RFU CMKLR1 (11741424_a_at) / Fold change /veh CMKLR1 (11741424_a_at) / RFU LOC101060620 /// MAPK8IP1 (11723275_at) / Fold change /veh LOC101060620 /// MAPK8IP1 (11723275_at) / RFU SPTSSB (11747773_x_at) / Fold change /veh SPTSSB (11747773_x_at) / RFU PRSS12 (11739890_at) / Fold change /veh PRSS12 (11739890_at) / RFU BIN1 (11741810_x_at) / Fold change /veh BIN1 (11741810_x_at) / RFU WNT11 (11732464_a_at) / Fold change /veh WNT11 (11732464_a_at) / RFU C10orf10 (11716521_a_at) / Fold change /veh C10orf10 (11716521_a_at) / RFU C5orf56 (11738089_at) / Fold change /veh C5orf56 (11738089_at) / RFU CYB561 (11721691_x_at) / Fold change /veh CYB561 (11721691_x_at) / RFU ANKRD19P (11752326_a_at) / Fold change /veh ANKRD19P (11752326_a_at) / RFU OR2T12 /// OR2T33 /// OR2T8 (11738714_s_at) / Fold change /veh OR2T12 /// OR2T33 /// OR2T8 (11738714_s_at) / RFU VCAN (11748164_a_at) / Fold change /veh VCAN (11748164_a_at) / RFU JSRP1 (11732532_at) / Fold change /veh JSRP1 (11732532_at) / RFU KRTAP10-11 (11738290_x_at) / Fold change /veh KRTAP10-11 (11738290_x_at) / RFU MYO3A (11730013_a_at) / Fold change /veh MYO3A (11730013_a_at) / RFU EBF3 (11725865_a_at) / Fold change /veh EBF3 (11725865_a_at) / RFU CAMK2N1 (11719241_x_at) / Fold change /veh CAMK2N1 (11719241_x_at) / RFU C5orf56 (11738088_a_at) / Fold change /veh C5orf56 (11738088_a_at) / RFU OLFML3 (11715873_a_at) / Fold change /veh OLFML3 (11715873_a_at) / RFU LOC100653217 /// NTM (11731650_a_at) / Fold change /veh LOC100653217 /// NTM (11731650_a_at) / RFU MAPK11 (11762145_a_at) / Fold change /veh MAPK11 (11762145_a_at) / RFU FIZ1 (11724087_x_at) / Fold change /veh FIZ1 (11724087_x_at) / RFU OASL (11726364_x_at) / Fold change /veh OASL (11726364_x_at) / RFU SOX15 (11748057_x_at) / Fold change /veh SOX15 (11748057_x_at) / RFU CD79A (11719716_a_at) / Fold change /veh CD79A (11719716_a_at) / RFU HIST1H1D (11736915_at) / Fold change /veh HIST1H1D (11736915_at) / RFU CASKIN2 (11723855_a_at) / Fold change /veh CASKIN2 (11723855_a_at) / RFU LOC730098 (11760151_x_at) / Fold change /veh LOC730098 (11760151_x_at) / RFU OR4N2 (11742367_at) / Fold change /veh OR4N2 (11742367_at) / RFU PRRT2 (11749266_a_at) / Fold change /veh PRRT2 (11749266_a_at) / RFU SNX32 (11753110_a_at) / Fold change /veh SNX32 (11753110_a_at) / RFU CDHR5 (11726645_a_at) / Fold change /veh CDHR5 (11726645_a_at) / RFU RCAN1 (11760418_a_at) / Fold change /veh RCAN1 (11760418_a_at) / RFU FAM167A (11723789_a_at) / Fold change /veh FAM167A (11723789_a_at) / RFU FAM26E (11764081_at) / Fold change /veh FAM26E (11764081_at) / RFU ISYNA1 (11749810_s_at) / Fold change /veh ISYNA1 (11749810_s_at) / RFU ACY1 (11761880_at) / Fold change /veh ACY1 (11761880_at) / RFU 11764098_at / Fold change /veh 11764098_at / RFU SAMD14 (11745864_x_at) / Fold change /veh SAMD14 (11745864_x_at) / RFU NPB (11741838_a_at) / Fold change /veh NPB (11741838_a_at) / RFU TMPRSS6 (11731388_a_at) / Fold change /veh TMPRSS6 (11731388_a_at) / RFU KRTAP10-2 (11738614_at) / Fold change /veh KRTAP10-2 (11738614_at) / RFU ARHGAP8 /// PRR5-ARHGAP8 (11727945_x_at) / Fold change /veh ARHGAP8 /// PRR5-ARHGAP8 (11727945_x_at) / RFU KRTAP5-7 /// NADSYN1 (11734609_at) / Fold change /veh KRTAP5-7 /// NADSYN1 (11734609_at) / RFU RASL12 (11751679_a_at) / Fold change /veh RASL12 (11751679_a_at) / RFU CDKN2B (11736163_a_at) / Fold change /veh CDKN2B (11736163_a_at) / RFU PRF1 (11729649_at) / Fold change /veh PRF1 (11729649_at) / RFU, ZNF638 /// ZNF638-IT1 / Fold change vs veh, ZNF638 /// ZNF638-IT1 / RFU, PANK3 / Fold change vs veh, PANK3 / RFU, SH3YL1 / Fold change vs veh, SH3YL1 / RFU, ZEB2 / Fold change vs veh, ZEB2 / RFU, NRIP1 / Fold change vs veh, NRIP1 / RFU, PTTG1IP / Fold change vs veh, PTTG1IP / RFU, CAPN2 / Fold change vs veh, CAPN2 / RFU, MED14 / Fold change vs veh, MED14 / RFU, SNORA58 / Fold change vs veh, SNORA58 / RFU, C1orf63 / Fold change vs veh, C1orf63 / RFU, LRRFIP1 / Fold change vs veh, LRRFIP1 / RFU, NDUFAF7 / Fold change vs veh, NDUFAF7 / RFU, SLC12A2 / Fold change vs veh, SLC12A2 / RFU, IBTK / Fold change vs veh, IBTK / RFU, ESF1 / Fold change vs veh, ESF1 / Fold change vs veh, TMEM50B / RFU, TAOK1 / Fold change vs veh, TAOK1 / RFU, ACBD3 / Fold change vs veh, ACBD3 / RFU, TMA16 / Fold change vs veh, TMA16 / RFU, RWDD3 / Fold change vs veh, RWDD3 / RFU, BCAT1 / Fold change vs veh, BCAT1 / RFU, EDEM3 / Fold change vs veh, EDEM3 / RFU, TMEM33 / Fold change vs veh, TMEM33 / RFU, WDR75 / Fold change vs veh, WDR75 / RFU, AHCTF1 / Fold change vs veh, AHCTF1 / RFU, TFRC / Fold change vs veh, TFRC / RFU, ZDHHC17 / Fold change vs veh, ZDHHC17 / RFU, NOM1 / Fold change vs veh, NOM1 / RFU, ARL8B / Fold change vs veh, ARL8B / RFU, ZBTB11 / Fold change vs veh, ZBTB11 / RFU, TAMM41 / Fold change vs veh, TAMM41 / RFU, KIAA1704 /// LOC100996395 / Fold change vs veh, KIAA1704 /// LOC100996395 / RFU, ING1 / Fold change vs veh, ING1 / RFU, TRMT61B / Fold change vs veh, TRMT61B / RFU, FUBP3 / Fold change vs veh, FUBP3 / RFU, TP53 / Fold change vs veh, TP53 / RFU, TNKS2 / Fold change vs veh, TNKS2 / RFU, ZFP14 / Fold change vs veh, ZFP14 / RFU, ACTR2 / Fold change vs veh, ACTR2 / RFU, PPP3R1 / Fold change vs veh, PPP3R1 / RFU, PIK3R1 / Fold change vs veh, PIK3R1 / RFU, HNRNPA1 / Fold change vs veh, HNRNPA1 / RFU, RNF170 / Fold change vs veh, RNF170 / RFU, ZNF28 / Fold change vs veh, ZNF28 / RFU, RNGTT / Fold change vs veh, RNGTT / RFU, OGT / Fold change vs veh, OGT / RFU, BRD1 / Fold change vs veh, BRD1 / RFU, MARS / Fold change vs veh, MARS / RFU, ZNF655 / Fold change vs veh, ZNF655 / RFU, FAHD1 / Fold change vs veh, FAHD1 / RFU, BDP1 / Fold change vs veh, BDP1 / RFU, LRRCC1 / Fold change vs veh, LRRCC1 / RFU, ARID1A / Fold change vs veh, ARID1A / RFU, ZNF146 / Fold change vs veh, ZNF146 / RFU, ZNF330 / Fold change vs veh, ZNF330 / RFU, GPN3 / Fold change vs veh, GPN3 / RFU, C9orf123 / Fold change vs veh, C9orf123 / RFU, N4BP2L2 / Fold change vs veh, N4BP2L2 / RFU, ARFIP1 / Fold change vs veh, ARFIP1 / RFU, FAM179B / Fold change vs veh, FAM179B / RFU, BCL10 / Fold change vs veh, BCL10 / RFU, UHRF1BP1L / Fold change vs veh, UHRF1BP1L / RFU, BET1 / Fold change vs veh, BET1 / RFU, CNOT2 / Fold change vs veh, CNOT2 / RFU, ZNF268 / Fold change vs veh, ZNF268 / Fold change vs veh, ZNF507 / RFU, DGCR2 / Fold change vs veh, DGCR2 / RFU, WDSUB1 / Fold change vs veh, WDSUB1 / Fold change vs veh, HSP90B1 /// MIR3652 / RFU, ADSS / Fold change vs veh, ADSS / RFU, GK / Fold change vs veh, GK / RFU, ZNF148 / Fold change vs veh, ZNF148 / RFU, TAF9 / Fold change vs veh, TAF9 / RFU, SLC1A5 / Fold change vs veh, SLC1A5 / RFU, SLMO2 / Fold change vs veh, SLMO2 / RFU, ABCC4 / Fold change vs veh, ABCC4 / RFU, LOC101060439 /// RAP1B / Fold change vs veh, LOC101060439 /// RAP1B / RFU, RFX7 / Fold change vs veh, RFX7 / RFU, GTPBP10 / Fold change vs veh, GTPBP10 / RFU, CNEP1R1 / Fold change vs veh, CNEP1R1 / RFU, BIVM-ERCC5 /// ERCC5 / Fold change vs veh, BIVM-ERCC5 /// ERCC5 / RFU, ILF3 / Fold change vs veh, ILF3 / RFU 11762660_at / Fold change /veh 11762660_at / RFU VCAN (11757783_s_at) / Fold change /veh VCAN (11757783_s_at) / RFU DDX43 (11728927_at) / Fold change /veh DDX43 (11728927_at) / RFU KRT8 (11758188_x_at) / Fold change /veh KRT8 (11758188_x_at) / RFU NKD1 (11759106_at) / Fold change /veh NKD1 (11759106_at) / RFU SRD5A1 (11742802_a_at) / Fold change /veh SRD5A1 (11742802_a_at) / RFU TPSAB1 /// TPSB2 (11721975_s_at) / Fold change /veh TPSAB1 /// TPSB2 (11721975_s_at) / RFU GSTM3 (11746129_a_at) / Fold change /veh GSTM3 (11746129_a_at) / RFU IL23R (11737362_x_at) / Fold change /veh IL23R (11737362_x_at) / RFU TMEM51 (11727254_a_at) / Fold change /veh TMEM51 (11727254_a_at) / RFU PIWIL2 (11732686_x_at) / Fold change /veh PIWIL2 (11732686_x_at) / RFU ORM1 (11744905_x_at) / Fold change /veh ORM1 (11744905_x_at) / RFU CCDC152 (11743942_at) / Fold change /veh CCDC152 (11743942_at) / RFU ECM1 (11717891_a_at) / Fold change /veh ECM1 (11717891_a_at) / RFU IL23R (11748794_a_at) / Fold change /veh IL23R (11748794_a_at) / RFU TNFAIP8L3 (11732012_x_at) / Fold change /veh TNFAIP8L3 (11732012_x_at) / RFU MBOAT4 (11741988_at) / Fold change /veh MBOAT4 (11741988_at) / RFU 11764193_at / Fold change /veh 11764193_at / RFU TMEM53 (11763286_at) / Fold change /veh TMEM53 (11763286_at) / RFU MAGEB2 (11727129_at) / Fold change /veh MAGEB2 (11727129_at) / RFU TMEM200A (11744735_a_at) / Fold change /veh TMEM200A (11744735_a_at) / RFU CCDC152 (11751479_a_at) / Fold change /veh CCDC152 (11751479_a_at) / RFU FAM211A (11726209_a_at) / Fold change /veh FAM211A (11726209_a_at) / RFU RGS16 (11746705_a_at) / Fold change /veh RGS16 (11746705_a_at) / RFU VCAN (11755009_s_at) / Fold change /veh VCAN (11755009_s_at) / RFU RHOB (11743442_s_at) / Fold change /veh RHOB (11743442_s_at) / RFU RGS16 (11720943_a_at) / Fold change /veh RGS16 (11720943_a_at) / RFU RGS16 (11720944_at) / Fold change /veh RGS16 (11720944_at) / RFU, VPS4B / Fold change vs veh, VPS4B / RFU, CREB1 / Fold change vs veh, CREB1 / RFU, DNAJC13 / Fold change vs veh, DNAJC13 / RFU, GNAQ / Fold change vs veh, GNAQ / RFU, CDK5R1 / Fold change vs veh, CDK5R1 / RFU, ZRANB3 / Fold change vs veh, ZRANB3 / RFU, CUL4A / Fold change vs veh, CUL4A / RFU, CCNY / Fold change vs veh, CCNY / RFU, UFL1 / Fold change vs veh, UFL1 / RFU, COG3 / Fold change vs veh, COG3 / RFU, DIAPH2 / Fold change vs veh, DIAPH2 / RFU, SKA2 / Fold change vs veh, SKA2 / RFU, AFF3 / Fold change vs veh, AFF3 / RFU, LMF1 / Fold change vs veh, LMF1 / RFU, IPO11 / Fold change vs veh, IPO11 / RFU, DFFB / Fold change vs veh, DFFB / RFU, FOXP1 / Fold change vs veh, FOXP1 / RFU, CARD8 / Fold change vs veh, CARD8 / RFU, STRN3 / Fold change vs veh, STRN3 / RFU, ADK / Fold change vs veh, ADK / RFU, RASSF2 / Fold change vs veh, RASSF2 / RFU, WIPF1 / Fold change vs veh, WIPF1 / RFU, LARP1B / Fold change vs veh, LARP1B / RFU, RASA1 / Fold change vs veh, RASA1 / RFU, RB1 / Fold change vs veh, RB1 / RFU, PPFIA1 / Fold change vs veh, PPFIA1 / RFU, MAT2A / Fold change vs veh, MAT2A / RFU, CCT5 / Fold change vs veh, CCT5 / RFU, WDR92 / Fold change vs veh, WDR92 / RFU, CUX1 / Fold change vs veh, CUX1 / RFU, TTC7A / Fold change vs veh, TTC7A / RFU, TMEM135 / Fold change vs veh, TMEM135 / RFU, DEPTOR / Fold change vs veh, DEPTOR / RFU, CPM / Fold change vs veh, CPM / RFU, DNAJB6 / Fold change vs veh, DNAJB6 / RFU, CACNA2D3 / Fold change vs veh, CACNA2D3 / RFU, DTX4 / Fold change vs veh, DTX4 / RFU, TFCP2 / Fold change vs veh, TFCP2 / RFU, GMCL1 /// GMCL1P1 / Fold change vs veh, GMCL1 /// GMCL1P1 / RFU, AEBP2 / Fold change vs veh, AEBP2 / RFU, SNHG1 /// SNORD22 /// SNORD25 /// SNORD26 /// SNORD27 /// SNORD28 /// SNORD29 /// SNORD31 / Fold change vs veh, SNHG1 /// SNORD22 /// SNORD25 /// SNORD26 /// SNORD27 /// SNORD28 /// SNORD29 /// SNORD31 / Fold change (Aza/veh), C12orf56 (ProbeSet 11735607_a_at) / Fold change (ACY-1035/veh), C12orf56 (ProbeSet 11735607_a_at) / Fold change (Aza/veh), FGFR1OP (ProbeSet 11751329_s_at) / Fold change (ACY-1035/veh), FGFR1OP (ProbeSet 11751329_s_at) / Fold change (Aza/veh), VPS36 (ProbeSet 11739960_a_at) / Fold change (ACY-1035/veh), VPS36 (ProbeSet 11739960_a_at) / RFU SYPL1 (11715823_x_at) / Fold change /veh SYPL1 (11715823_x_at) / RFU IGFBP7 (11715501_s_at) / Fold change /veh IGFBP7 (11715501_s_at) / RFU REEP3 (11722064_at) / Fold change /veh REEP3 (11722064_at) / RFU IGLL1 (11728026_x_at) / Fold change /veh IGLL1 (11728026_x_at): dose or concentration left out as unconfirmed
Conditions: ProbeSet 11732370_a_at; LIST D

For `Nc1ccc(-c2cccs2)cc1NC(=O)c1ccc2c(c1)cc(C1CC1)n2CCN1CCOCC1` [ACY-1035], the “RFU, CUX1” value was 235.11 RFU.
